Data taken from patent US20190100731A1, “EX-VIVO […] MODEL, METHODS OF PRODUCING SAME AND USES THEREOF” (The State of Israel, Ministry of Agriculture & Rural …, priority 2016, published 2019).
“Also recorded” adds a separate entry of the source.

Columns and labels:
IL-8 = IL-8 secretion (ELISA) in D/C-treated ex-vivo intestinal biopsies; type: cell-based, human; design: IL-8 secretion Value: unit not given here
Procedure: (§1) Biopsies (3 mm3) obtained from inflamed or healthy intestines and placed in PBS were treated with a Dispase (1 U/ml, Cat # 07923, StemCell Technologies Inc.) and Collagenase Type 1 (0.5 mg/ml with an activity of 0.5-2 U/mg Cat # 07902, StemCell Technologies Inc.) solution. Tubes were then incubated for 2-3h at 37° C.
After incubation, the tubes containing the biopsies were centrifuged at 5000 rpm for 1 minute. Then the supernatants were removed and tissues were washed three times with Hank's balance salt solution (HBSS). After each wash tubes were centrifuged as mentioned above. Then the tissues were placed on small Petri dish and cut into 2-3 pieces with a clean scalpel. Explants were cultured in groups of 2-3 with the villus surface facing up on microporous membranes (0.45-m pore size) contained in either Millicell-HA or organotypic tissue culture inserts (Millipore) placed inside 6-well plastic tissue culture dishes (Costar 3506) along with 1.5 ml of tissue culture medium. The tissue culture medium was Dulbecco's modified Eagle's medium supplemented with 10% heat-inactivated fetal calf serum, penicillin (100units/ml), streptomycin (100 μg/ml), leupeptin (50 μg/ml), PMSF (1 mM), soybean trypsin inhibitor (50 μg/ml). In cases dexamethasone (DX) was included in the media, its concentration was 200 μg/ml. This is followed by treating the samples with Control and extracts treatments (cannabis or other). In cases TNF-α is added to induce ILs expression the concentration was 50 μg/ml. Cultures are then incubated at 37° C. and gassed hourly with 95% oxygen and 5% carbon dioxide. For evaluation of TNF-α expression, supernatants are taken after 1 h of incubation. For other ILs, supernatants are taken after overnight incubation unless mentioned differently. The supernatants from biopsies are used for determination of cytokine profile by measuring their levels using commercial ELISA Kits. The following cytokines were measured: TNF Alfa (the supernatant was taken after 1-3 h), for the rest of the cytokines and interleukins supernatant was analyzed after 16 hours. The following factors were analyzed: IFN gamma, TFG beta, IL-10, IL-23/IL-23R, IL-12, IL-1 (IL 113), IL 2, IL-8/IL-8R, IL-6, IL-17, IL-13, IL-5, IL-4, IL-3. Levels of secreted factors from inflamed and healthy tissue and from cannabis treated and not treated tissue were compared. After all samples are taken, tissue viability will be assessed by addition of Alamar blue (Risazurin) as described below.
Biopsies obtained from both healthy and sick intestinal samples of two patients were cultured overnight incubation using the full protocol (D/C) described in material and methods section hereinabove. Seven different cytokines were evaluated following overnight incubation using specific ELISA kits manufactured by R&D Systems.
The cytokines tested included TNF-α, IL-6, IL-8, IL-10, IL-12, IL-17 and IL-27. In addition to the ethanolic cannabis extract was tested for its ability to reduce inflammation. After supernatant sampling, additional media was added to the wells and Resazurin (alamar blue) viability assay was carried out. […] Responsive cytokines that show significant levels of expression (FIGS. 1A-F) on one hand vs. other ILs in which basal level were obtained which didn't allow a clear conclusion (FIGS. 2A-D).
Several more experiments were done to corroborate the above results. These are summarized in Table 1 below(C2F and F7 and dexamethasone).

IL-6 = IL-6 production (ELISA) in ex-vivo intestinal biopsies; type: cell-based, human; settings: D/C treated biopsies of patient P6; 18 hours; pure CBD 25 μM / 16.6 μM (FIG. 5)
Procedure: as §1
After incubation, the tubes containing the biopsies were centrifuged at 5000 rpm for 1 minute. Then the supernatants were removed and tissues were washed three times with Hank's balance salt solution (HBSS). After each wash tubes were centrifuged as mentioned above. Then the tissues were placed on small Petri dish and cut into 2-3 pieces with a clean scalpel. […] The following cytokines were measured: TNF Alfa (the supernatant was taken after 1-3 h), for the rest of the cytokines and interleukins supernatant was analyzed after 16 hours. The following factors were analyzed: IFN gamma, TFG beta, IL-10, IL-23/IL-23R, IL-12, IL-1 (IL 113), IL 2, IL-8/IL-8R, IL-6, IL-17, IL-13, IL-5, IL-4, IL-3. […] After all samples are taken, tissue viability will be assessed by addition of Alamar blue (Risazurin) as described below. […]

[1] = biopsy PH-13-H: healthy patient 13, healthy tissue
[2] = biopsy PH-15-H: healthy patient 15, healthy tissue
[3] = biopsy PS-3-H: sick patient 3, healthy tissue
[4] = biopsy PS-3-S: sick patient 3, sick tissue
[5] = biopsy PS-4-H: sick patient 4, healthy tissue
[6] = biopsy PS-4-S: sick patient 4, sick tissue
[7] = biopsy PS-7-H: sick patient 7, healthy tissue
[8] = biopsy PS-7-S: sick patient 7, sick tissue
[9] = biopsy PS-8-H: sick patient 8, healthy tissue
[10] = biopsy PS-11-H: sick patient 11, healthy tissue
[11] = biopsy PS-11-S: sick patient 11, sick tissue
[12] = biopsy PS-12-H: sick patient 12, healthy tissue
[13] = biopsy PS-12-S: sick patient 12, sick tissue
[14] = biopsy PS-14-H: sick patient 14, healthy tissue
[15] = biopsy PS-14-S: sick patient 14, sick tissue
[16] = biopsy PS-16-H: sick patient 16, healthy tissue
[17] = biopsy PS-16-S: sick patient 16, sick tissue
[18] = biopsy PS-17-H: sick patient 17, healthy tissue
[19] = biopsy PS-17-S: sick patient 17, sick tissue
[20] = biopsy PS-18-H: sick patient 18, healthy tissue
[21] = biopsy PS-18-S: sick patient 18, sick tissue
[22] = biopsy PS-19-H: sick patient 19, healthy tissue
[23] = biopsy PS-19-S: sick patient 19, sick tissue

C[C@@H]1C[C@H]2[C@@H]3CCC4=CC(=O)C=C[C@]4(C)[C@@]3(F)[C@@H](O)C[C@]2(C)[C@@]1(O)C(=O)CO [Dexamethasone, dexamethasone]
IL-8 secretion % Reduction from NT (IL-8; [1]): −1.1% | IL-8 secretion Value (IL-8; [1]): 844.6 | IL-8 secretion % Reduction from NT (IL-8; [2]): 46.4% | IL-8 secretion Value (IL-8; [2]): 451.9 | IL-8 secretion % Reduction from NT (IL-8; [3]): 32.4% | IL-8 secretion Value (IL-8; [3]): 670.1 | IL-8 secretion % Reduction from NT (IL-8; [4]): 17.5% | IL-8 secretion Value (IL-8; [4]): 742.6 | IL-8 secretion % Reduction from NT (IL-8; [5]): 4.3% | IL-8 secretion Value (IL-8; [5]): 915.4 | IL-8 secretion % Reduction from NT (IL-8; [6]): 78.3% | IL-8 secretion Value (IL-8; [6]): 216.9 | IL-8 secretion % Reduction from NT (IL-8; [7]): 14.7% | IL-8 secretion Value (IL-8; [7]): 745.1 | IL-8 secretion % Reduction from NT (IL-8; [8]): −5.6% | IL-8 secretion Value (IL-8; [8]): 793.9 | IL-8 secretion % Reduction from NT (IL-8; [9]): 69.5% | IL-8 secretion Value (IL-8; [9]): 215.3 | IL-8 secretion % Reduction from NT (IL-8; [10]): 94.8% | IL-8 secretion Value (IL-8; [10]): 34.9 | IL-8 secretion % Reduction from NT (IL-8; [11]): 83.3% | IL-8 secretion Value (IL-8; [11]): 74.2 | IL-8 secretion % Reduction from NT (IL-8; [12]): 43.7% | IL-8 secretion Value (IL-8; [12]): 530.6 | IL-8 secretion % Reduction from NT (IL-8; [13]): 4.0% | IL-8 secretion Value (IL-8; [13]): 817.8 | IL-8 secretion % Reduction from NT (IL-8; [14]): 44.2% | IL-8 secretion Value (IL-8; [14]): 485.8 | IL-8 secretion % Reduction from NT (IL-8; [15]): 24.1% | IL-8 secretion Value (IL-8; [15]): 666.8 | IL-8 secretion % Reduction from NT (IL-8; [16]): 38.3% | IL-8 secretion Value (IL-8; [16]): 166.5 | IL-8 secretion % Reduction from NT (IL-8; [17]): 83.6% | IL-8 secretion Value (IL-8; [17]): 96.7 | IL-8 secretion % Reduction from NT (IL-8; [18]): 68.9% | IL-8 secretion Value (IL-8; [18]): 303.5 | IL-8 secretion % Reduction from NT (IL-8; [19]): 0.5% | IL-8 secretion Value (IL-8; [19]): 1064.0 | IL-8 secretion % Reduction from NT (IL-8; [20]): 66.4% | IL-8 secretion Value (IL-8; [20]): 331.0 | IL-8 secretion % Reduction from NT (IL-8; [21]): 36.1% | IL-8 secretion Value (IL-8; [21]): 484.9 | IL-8 secretion % Reduction from NT (IL-8; [22]): 32.6% | IL-8 secretion Value (IL-8; [22]): 86.0 | IL-8 secretion % Reduction from NT (IL-8; [23]): 64.2% | IL-8 secretion Value (IL-8; [23]): 80.5

C=C(C)[C@@H]1CCC(C)=C[C@H]1c1c(O)cc(CCCCC)cc1O [CBD, Cannabidiol]
anti-inflammatory activity (IL-6 production) (IL-6): doesn't harbor any anti-inflammatory activity; also recorded: no anti-inflammatory activity
